Literature values as cited in PMC3272643 (Organic process research & development, 2012).

System: peptide-cleaving proteases

Substance: gramicidin S
- resistance to peptide-cleaving proteases: significant resistance to peptide-cleaving proteases
